Experimental data: US20110136801A1, “Novel Compounds” (Dainippon Sumitomo Pharma Co. Ltd., priority 2009, published 2011)
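Throughout, for EC50: Read-out is secreted alkaline phosphatase made under an NFkB/ELAM-1 composite promoter, reporting TLR7-triggered NFkB activation.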

What follows are molecules tested on Male Brown Norway rats (assay: Antigen-induced pulmonary inflammation in a rat asthma model (eosinophils and Th2 cytokines in BALF)). Details: 0.1 mg/kg intratracheally 24 hours before and 24 hours after OVA-challenge, BALF 48 hours after challenge.
Assay type: in vivo
Procedure: Rats were sensitized and challenged to produce allergic airway inflammation in a similar manner to that described by Underwood et al (British Journal of Pharmacology 2002; 137: 263-275, 2002). Male Brown Norway rats were sensitized subcutaneously with ovalbumin (OVA) and aluminum hydroxide on day 0, and challenged with aerosolized OVA solution on day 14. The test compound was administered twice intratracheally 24 hours before and 24 hours after the OVA-challenge and bronchoalveolar lavage fluid (BALF) was collected 48 hours after the OVA-challenge. Then eosinophils and Th2 cytokines (IL-5 and IL-13) in the BALF were measured to evaluate efficacy of the test compounds of this invention.
With `CCCCc1nc2c(N)nc3ccccc3c2n1CCCN(Cc1cccc(OCC(=O)OC)c1)C(=O)CN(C)C` [Example 9, Methyl (3-{[[3-(4-amino-2-butyl-1H-imidazo[4,5-c]quinolin-1-yl)propyl](N,N-dimethylglycyl)amino]methyl}phenoxy)acetate] the “Eosinophiles in BALF, inhibition (%) to OVA-Challenge control” value was 53%, the “IL-5 in BALF, inhibition (%) to OVA-Challenge control” value was 66% and the “IL-13 in BALF, inhibition (%) to OVA-Challenge control” value was 89%.

Same assay, conditions: 1.0 mg/kg intratracheally 24 hours before and 24 hours after OVA-challenge, BALF 48 hours after challenge
With `CCCCc1nc2c(N)nc3ccccc3c2n1CCCN(Cc1cccc(OCC(=O)OC)c1)C(=O)CN(C)C` [Example 9, Methyl (3-{[[3-(4-amino-2-butyl-1H-imidazo[4,5-c]quinolin-1-yl)propyl](N,N-dimethylglycyl)amino]methyl}phenoxy)acetate] the “Eosinophiles in BALF, inhibition (%) to OVA-Challenge control” value was 77%, the “IL-5 in BALF, inhibition (%) to OVA-Challenge control” value was 72% and the “IL-13 in BALF, inhibition (%) to OVA-Challenge control” value was 85%.

Each molecule was assayed against T1, human TLR7 (Homo sapiens, UniProt Q9NYK1) (assay: Human TLR7 Assay (SEAP reporter in HEK293 cells)). Details: HEK293 cell line expressing human TLR7 and pNiFty2-SEAP reporter, overnight incubation at 37° C., 0.1% DMSO; read-out: hTLR7 EC50.
T1 construct: expressed in transfected cells; host or cells: HEK293 cell line stably expressing the pNiFty2-SEAP reporter plasmid; TLR7 in pUNO vector, blasticidin selection
T1 sequence (Q9NYK1 27-1049): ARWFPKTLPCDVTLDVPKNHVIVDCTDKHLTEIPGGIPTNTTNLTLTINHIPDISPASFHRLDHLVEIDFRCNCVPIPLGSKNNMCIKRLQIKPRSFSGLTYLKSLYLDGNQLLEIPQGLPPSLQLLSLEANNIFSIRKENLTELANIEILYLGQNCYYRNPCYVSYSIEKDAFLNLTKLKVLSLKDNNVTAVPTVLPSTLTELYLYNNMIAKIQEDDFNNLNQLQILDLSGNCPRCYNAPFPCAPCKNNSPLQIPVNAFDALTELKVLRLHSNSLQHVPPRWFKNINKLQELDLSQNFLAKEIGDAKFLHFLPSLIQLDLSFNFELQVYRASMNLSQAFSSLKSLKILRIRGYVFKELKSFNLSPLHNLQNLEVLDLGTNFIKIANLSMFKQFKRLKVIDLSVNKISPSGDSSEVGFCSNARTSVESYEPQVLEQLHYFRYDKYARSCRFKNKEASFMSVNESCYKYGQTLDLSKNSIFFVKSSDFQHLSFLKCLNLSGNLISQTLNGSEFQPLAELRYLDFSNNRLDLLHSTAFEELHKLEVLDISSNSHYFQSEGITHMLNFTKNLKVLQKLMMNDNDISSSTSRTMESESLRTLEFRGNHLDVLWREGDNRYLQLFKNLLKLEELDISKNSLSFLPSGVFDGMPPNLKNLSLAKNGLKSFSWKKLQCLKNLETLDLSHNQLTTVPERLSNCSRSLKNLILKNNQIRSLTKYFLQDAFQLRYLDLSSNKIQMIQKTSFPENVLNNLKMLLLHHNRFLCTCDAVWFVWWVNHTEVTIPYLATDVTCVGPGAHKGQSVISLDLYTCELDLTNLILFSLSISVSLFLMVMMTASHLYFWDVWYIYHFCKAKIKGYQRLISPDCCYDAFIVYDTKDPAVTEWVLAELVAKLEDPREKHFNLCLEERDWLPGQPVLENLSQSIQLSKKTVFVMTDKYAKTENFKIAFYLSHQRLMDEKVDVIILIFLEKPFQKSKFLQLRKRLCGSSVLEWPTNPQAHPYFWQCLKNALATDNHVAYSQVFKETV
Assay type: cell-based
Text: The most common variant sequence of human TLR7 (represented by the EMBL sequence AF240467) was cloned into the mammalian cell expression vector pUNO and transfected into a HEK293 cell line already stably expressing the pNiFty2-SEAP reporter plasmid; integration of the reporter gene was maintained by selection with the antibiotic zeocin. Transfectants with stable TLR7 expression were selected using the antibiotic blasticidin. In this reporter cell-line, expression of secreted alkaline phosphatase (SEAP) is controlled by an NFkB/ELAM-1 composite promoter comprising five NFkB sites combined with the proximal ELAM-1 promoter. TLR signaling leads to the translocation of NFkB and activation of the promoter results in expression of the SEAP gene. TLR7-specific activation was assessed by determining the level of SEAP produced following overnight incubation of the cells at 37° C. with the standard compound in the presence of 0.1% (v/v) dimethylsulfoxide (DMSO). Concentration dependent induction of SEAP production by compounds was expressed as the concentration of compound which produced half of the maximal level of SEAP induction for that compound (EC50).
`CCOCc1nc2c(N)nc3ccccc3c2n1CCCN(Cc1cccc(OC(C)(C)C(=O)OCC)c1)C(=O)CN1CCCC1` [Example 170, Ethyl 2-{3-[(N-{3-[4-amino-2-(ethoxymethyl)-1H-imidazo[4,5-c]quinolin-1-yl]propyl}-2-{pyrrolidin-1-yl}acetamido)methyl]phenoxy}-2-methylpropanoate] gave an EC50 of 0.521 µM.
Work on `CCCCc1nc2c(N)nc3ccccc3c2n1CCCN(Cc1ccc(OCC(=O)OC)cc1)C(=O)CN(C)C` [Example 5, Methyl (4-{[[3-(4-amino-2-butyl-1H-imidazo[4,5-c]quinolin-1-yl)propyl](N,N-dimethylglycyl)amino]methyl}phenoxy)acetate] yielded an EC50 of 0.247 µM.
`CCCCc1nc2c(N)nc3ccccc3c2n1CCCN(Cc1cccc(OCC(=O)OC)c1)C(=O)CN(CC)CC` [Example 14, Methyl (3-{[[3-(4-amino-2-butyl-1H-imidazo[4,5-c]quinolin-1-yl)propyl](N,N-diethylglycyl)amino]methyl}phenoxy)acetate] gave an EC50 of 0.0736 µM.
Work on `CCCCc1nc2c(N)nc3ccccc3c2n1CCCN(Cc1ccc(OCC(=O)OC)cc1)C(=O)CN1CCN(CCOC)CC1` [Example 8, Methyl {4-[([3-(4-amino-2-butyl-1H-imidazo[4,5-c]quinolin-1-yl)propyl]{[4-(2-methoxyethyl)piperazin-1-yl]acetyl}amino)methyl]phenoxy}acetate] yielded an EC50 of 0.904 µM.
`CCOC(=O)COc1cc(F)cc(CN(CCCn2c(CCOC)nc3c(N)nc4ccccc4c32)C(=O)CN(CC)CC)c1` [Example 124, Ethyl 2-{3-[(N-{3-[4-amino-2-(2-methoxyethyl)-1H-imidazo[4,5-c]quinolin-1-yl]propyl}-2-{diethylamino}acetamido)methyl]-5-fluorophenoxy}acetate] showed an EC50 of 0.0403 µM.
`CCOC(=O)C1(Oc2cccc(CN(CCCn3c(CCOC)nc4c(N)nc5ccccc5c43)C(=O)CN(CC)CC)c2)CCC1` [Example 59, Ethyl 1-{3-[(N-{3-[4-amino-2-(2-methoxyethyl)-1H-imidazo[4,5-c]quinolin-1-yl]propyl}-2-{diethylamino}acetamido)methyl]phenoxy}cyclobutanecarboxylate] was tested, and the EC50 was 0.069 µM.
With `CCOC(=O)COc1cc(CN(CCN2CCCCC2)C(=O)NCCCCn2c(CCOC)nc3c(N)nc4ccccc4c32)ccc1F` [Example 143, Ethyl 2-{5-[(3-{4-[4-amino-2-(2-methoxyethyl)-1H-imidazo[4,5-c]quinolin-1-yl]butyl}-1-{2-(piperidin-1-yl)ethyl}ureido)methyl]-2-fluorophenoxy}acetate] the EC50 was 0.0494 µM.
`CCN(CC)CC(=O)N(CCn1c(CCOC)nc2c(N)nc3ccccc3c21)Cc1cccc(OCC(=O)OC(C)C)c1` [Example 103, Isopropyl 2-{3-[(N-{2-[4-amino-2-(2-methoxyethyl)-1H-imidazo[4,5-c]quinolin-1-yl]ethyl}-2-{diethylamino}acetamido)methyl]phenoxy}acetate] gave an EC50 of over 10 µM.
Molecule `CCN(C)CC(=O)N(CCCn1c(CCOC)nc2c(N)nc3ccccc3c21)Cc1cccc(OCC(=O)OC2CCCC2)c1` [Example 111, Cyclopentyl 2-{3-[(N-{3-[4-amino-2-(2-methoxyethyl)-1H-imidazo[4,5-c]quinolin-1-yl]propyl}-2-{ethyl(methyl)amino}acetamido)methyl]phenoxy}acetate] has an EC50 of 0.123 µM.
`CCCCc1nc2c(N)nc3ccccc3c2n1CCCN(Cc1cccc(OCC(=O)OC(C)C)c1F)C(=O)CN(C)C` [Example 165, Isopropyl 2-[3-({N-[3-(4-amino-2-butyl-1H-imidazo[4,5-c]quinolin-1-yl)propyl]-2-(dimethylamino)acetamido}methyl)-2-fluorophenoxy]acetate] was tested, and the EC50 was 0.297 µM.
`CCN(CC)CC(=O)N(CCCn1c(CCOC)nc2c(N)nc3ccccc3c21)Cc1cccc(OCC(=O)OC(C)C)c1C` [Example 147, Isopropyl 2-{3-[(N-{3-[4-amino-2-(2-methoxyethyl)-1H-imidazo[4,5-c]quinolin-1-yl]propyl}-2-{diethylamino}acetamido)methyl]-2-methylphenoxy}acetate] gave an EC50 of 0.183 µM.
In the case of `CCOC(=O)COc1cccc(CN(CCCn2c(CCOC)nc3c(N)nc4ccccc4c32)C(=O)CN(CC)CC)c1` [Example 25, Ethyl 2-{3-[(N-{3-[4-amino-2-(2-methoxyethyl)-1H-imidazo[4,5-c]quinolin-1-yl]propyl}-2-(diethylamino)acetamido)methyl]phenoxy}acetate], the EC50 is reported as 0.0587 µM.
Molecule `CCN(C)CC(=O)N(CCCn1c(CCOC)nc2c(N)nc3ccccc3c21)Cc1ccc(OC)c(OCC(=O)OC(C)C)c1` [Example 76, Isopropyl 2-{5-[(N-{3-[4-amino-2-(2-methoxyethyl)-1H-imidazo[4,5-c]quinolin-1-yl]propyl}-2-{ethyl(methyl)amino}acetamido)methyl]-2-methoxyphenoxy}acetate] has an EC50 of 0.211 µM.
With `CCOC(=O)COc1cc(CN(CCCn2c(CCOC)nc3c(N)nc4ccccc4c32)C(=O)CN(CC)CC)ccc1C` [Example 66, Ethyl 2-{5-[(N-{3-[4-amino-2-(2-methoxyethyl)-1H-imidazo[4,5-c]quinolin-1-yl]propyl}-2-{diethylamino}acetamido)methyl]-2-methylphenoxy}acetate] the EC50 was 0.0273 µM.
`CCOCc1nc2c(N)nc3ccccc3c2n1CCCN(Cc1cccc(OCC(=O)OC(C)C)c1)C(=O)CN1CCCC1` [Example 172, Isopropyl 2-{3-[(N-{3-[4-amino-2-(ethoxymethyl)-1H-imidazo[4,5-c]quinolin-1-yl]propyl}-2-{pyrrolidin-1-yl}acetamido)methyl]phenoxy}acetate] showed an EC50 of 0.434 µM.
For `CCCCc1nc2c(N)nc3ccccc3c2n1CCCN(Cc1cccc(OC(C)(C)C(=O)OCC)c1)C(=O)CN1CCCC1` [Example 168, Ethyl 2-[3-({N-[3-(4-amino-2-butyl-1H-imidazo[4,5-c]quinolin-1-yl)propyl]-2-(pyrrolidin-1-yl)acetamido}methyl)phenoxy]-2-methylpropanoate], the EC50 was 0.166 µM.
Work on `COCCc1nc2c(N)nc3ccccc3c2n1CCCCN(CCN(C)C)Cc1cccc(OCC(=O)OC(C)C)c1` [Example 132, Isopropyl 2-{3-[({4-[4-amino-2-(2-methoxyethyl)-1H-imidazo[4,5-c]quinolin-1-yl]butyl}{2-[dimethylamino]ethyl}amino)methyl]phenoxy}acetate] yielded an EC50 of 0.0564 µM.
Work on `CCOC(=O)COc1cccc(CN(CCCCn2c(CCOC)nc3c(N)nc4ccccc4c32)C(=O)NCCCN(C)C)c1` [Example 129, Ethyl 2-{3-[(1-{4-[4-amino-2-(2-methoxyethyl)-1H-imidazo[4,5-c]quinolin-1-yl]butyl}-3-{3-(dimethylamino)propyl}ureido)methyl]phenoxy}acetate] yielded an EC50 of 0.204 µM.
`CCN(CC)CC(=O)N(CCCn1c(CCOC)nc2c(N)nc3ccccc3c21)Cc1ccc(C)c(OCC(=O)OC(C)C)c1` [Example 67, Isopropyl 2-{5-[(N-{3-[4-amino-2-(2-methoxyethyl)-1H-imidazo[4,5-c]quinolin-1-yl]propyl}-2-{diethylamino}acetamido)methyl]-2-methylphenoxy}acetate] gave an EC50 of 0.0458 µM.
